{"source": "patent US20210329918A1", "about": "“AQUEOUS COMPOSITIONS OF TOPRAMEZONE” (BASF SE, priority 2018, published 2021)", "origin": "cited, not measured here", "settings": "25° C.", "data": [{"smiles": "Cc1c(C(=O)c2cnn(C)c2O)ccc(S(C)(=O)=O)c1C1=NOCC1", "note": "[topramezone, 4-[3-(4,5-dihydro-1,2-oxazol-3-yl)-2-methyl-4-methylsulfonylbenzoyl]-2-methyl-1H-pyrazol-3-one]", "values": [{"measurement": "solubility of topramezone in water", "result": "about 0.305 g/L"}]}]}
